{
  "source": "patent US20060019971A1",
  "about": "“Treatment of cardiovascular disease with inhibitors of p38 kinase” (priority 2003, published 2006)",
  "key": {"[1]": {"test_system": "IL-6 secretion from HPBMCs", "experiment": "IL-6 secretion from HPBMCs, ELISA", "type": "cell-based, human", "experimental": "FIG. 2(a) illustrates both the effect of CRP on IL-6 secretion from HPBMCs and its modulation by a p38 inhibitor. 8×10^5 HPBMCs were plated in 96-well. After 1 hour medium was removed and cells were incubated with or without 10 μg/ml of purified human CRP in serum-free RPMI 1640. In parallel experiments cells were treated with 10% FCS together with the CRP treatment. For the p38 antagonism, the p38 inhibitor was added to a final concentration of 1 μM in the parallel treatment. After 6 hours the conditioned medium was collected and IL-6 and IL-8 levels were determined by ELISA. FIG. 2(b) illustrates the effects of p38 inhibitor concentration on CRP induced IL-6 secretion from HPBMCs. 3×10^5 HPBMCs were plated in 96-well. After 1 hour medium was removed and cells were incubated with 10 μg/ml of purified human CRP plus 10% FCS in the presence of varying concentrations of p38 inhibitor. After 4 hours conditioned medium were collected and IL-6 level was determined by ELISA. FIG. 2(c) illustrates both the effect of CRP on IL-6 gene expressions in HPBMCs and its modulation by p38 inhibitor. 5×10^6 HPBMCs were plated in 6-well. After 1 hour medium was removed and cells were treated with vehicle or 1 μM p38 inhibitor in RPMI 1640 medium. After 1 hour cells were stimulated with 10% FCS only or 10 μg/ml CRP plus 10% FCS. After 6 hours RNA was extracted from the cells and IL-6 expression level was determined by real-time PCR as described in Experimental section.\n(§1) Cryopreserved human peripheral blood monocytes (HPBMCs, from Biowitker, Walkersvill, Md.) were thawed and washed twice in RPMI 1640. Cells were plated in tissue culture plates and incubated in 5% CO2 at 37 C. After 1 hr media were removed and cells were treated with various treatments. After 2 to 20 hours conditioned media and/or cell lysates were collected for the analyses of secreted cytokines, protein or mRNA expression. 10 μg/ml of purified human CRP (Calbiochem, San Diego, Calif.) was used in most of the treatments. In some experiments fetal calf serum (FCS from ATCC) was added to a final concentration of 10% together with CRP. In the examples provided herein, including those assessing the effects of p38 antagonism, cells were pre-treated with SD, a p38 small molecule inhibitor (Compound 162 in Table A) for 1 hour prior to CRP treatment as described above. In a parallel series of experiments, the effect of vehicle (DMSO) was tested. For TaqMan analyses of various gene expression cells were lysed in ice-cold RLT lysis buffer (Qiagen, Valencia, Calif.) and the lysates were kept in −80° C. until the analyses. For Western analyses cells were lysed in RIPA buffer (50 mM Tris-HCl, pH 7.5, 150 mM NaCl, 1 mM EDTA, 1% NP-40) containing phosphatase inhibitor cocktails and protease inhibitor cocktail (Promega, Madison, Wis.).\nConditioned media from the treated cells were collected (6 to 20 hrs), and the level of secreted interleukin 6 (IL-6), interleukin 1 beta (IL-1 β), tumor necrosis factor alpha (TNFα), and interleukin 8 (IL-8) was determined by ELISA according to the manufacturer's instruction (Biosource International, Camarillo, Calif.). All determinations were performed in duplicates.\nAs part of the studies described herein, an investigation was done as to whether the CRP invoked IL-6 secretion from HPBMCs is dependent on p38 MAP kinase signaling. […] The effect of addition of 10% fetal calf serum (FCS) during the CRP treatment on IL-6 secretion was also assessed. […]"}, "TF protein in HPBMCs": {"test_system": "TF protein in HPBMCs", "experiment": "Tissue Factor protein expression in HPBMCs, Western", "type": "cell-based, human", "conditions": "1 μM SD, 16 hours", "experimental": "The figures illustrate the effects of CRP on TF protein and mRNA expression in HPBMCs and their modulation by p38 inhibitor. 1.5×10^6 HPBMCs were plated in 48-well. After 1 hour medium was removed and cells were incubated with or without 10 μg/ml of purified human CRP in serum-free RPMI 1640. In parallel experiments, cells were treated with 10% FCS together with the CRP treatment. For the p38 antagonism, p38 inhibitor was added to a final concentration of 1 μM in the parallel treatment. After 16 hours cells were lysed and TF protein level was determined by Western blot. TF signal was normalized by GAPDH signal. As shown in FIG. 7(c), after 6 hours TF mRNA level were determined by real-time PCR as described in the Experimental section.\nas §1, with “For TaqMan analyses of various gene expression cells were lysed in ice-cold RLT lysis buffer (Qiagen, Valencia, Calif.) and the lysates were kept in −80° C. until the analyses. For Western analyses cells were lysed in RIPA buffer (50 mM Tris-HCl, pH 7.5, 150 mM NaCl, 1 mM EDTA, 1% NP-40) containing phosphatase inhibitor cocktails and protease inhibitor cocktail (Promega, Madison, Wis.).” left out\nHPBMCs were treated as described above (p38 MAP kinase activation). […] 10 μg total proteins were resolved on LDS-PAGE (In Vitrogen, Carlsbad, Calif.), and tissue factor protein expression was determined by Western using antibody against human tissue factor (American Diagnostica, Stamford, Conn.). […]"}},
  "note": "pIC50: −log10 of the molar value. Entries after “also recorded” stand apart in the source; their conditions may differ.",
  "data": [
    {"molecule": "C[C@@H]1CN(Cc2ccc(F)cc2)[C@@H](C)CN1C(=O)c1cc2c(C(=O)C(=O)N(C)C)c[nH]c2cc1Cl", "note": "[Compound 162]", "values": [
      {"measurement": "inhibition of CRP-induced IL-6 secretion", "setting": "[1]; 1 μM SD, 10 μg/ml CRP, no FCS, 6 hours", "result": "almost completely attenuated"},
      {"measurement": "inhibition of IL-6 secretion induced by CRP plus 10% FCS", "setting": "[1]; 1 μM SD, 6 hours", "result": "dramatically inhibited"},
      {"measurement": "inhibition of basal IL-6 secretion", "setting": "[1]; 1 μM SD, HPBMCs, 6 hours", "result": "almost completely attenuated"},
      {"measurement": "inhibition of IL-6 secretion invoked by CRP in the presence of FCS", "setting": "[1]; 3 μM SD, 4 hours", "result": "almost completely inhibited"},
      {"measurement": "pIC50", "setting": "[1]; Homo sapiens, CRP 10 μg/ml in the presence of 10% FCS, 4 hours, read-out: concentration effective to inhibit 50% of IL-6 secretion", "result": "> 7.30"},
      {"measurement": "reduction of TF protein expression invoked by CRP plus FCS", "setting": "TF protein in HPBMCs", "result": "to control level"},
      {"measurement": "reduction of TF protein expression invoked by FCS", "setting": "TF protein in HPBMCs", "result": "to control level"},
      {"measurement": "reduction of TF protein expression invoked by CRP", "setting": "TF protein in HPBMCs; listed as SD", "result": "to control level; also recorded: blocked"}
    ]}
  ]
}
